Source: US20160095843A1, “PYRAZOLOPYRROLIDINE DERIVATIVES AND THEIR USE IN THE TREATMENT OF DISEASE” (NOVARTIS AG, priority 2013, published 2016)

Assays:
[1] = tested on: K-562 cells; assay: Cell growth inhibition assay (CellTiter-Glo), K-562; format: cell-based, human; conditions: Homo sapiens, K562
In short: (§1)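 Cellular ATP (CellTiter-Glo luminescence) measured after 4 days at 37° C., 5% CO2 of compound exposure, top concentration 10 μM in 3-fold steps, 0.1% DMSO. Readings corrected for no-cell background and a day-0 plate, normalised to vehicle and medium wells; half-maximal and total growth inhibition from four-parameter curves.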

[2] = tested on: MV-4-11 cells; assay: Cell growth inhibition assay (CellTiter-Glo), MV-4-11; format: cell-based; conditions: Homo sapiens, MV4-11
In short: as §1

[3] = tested on: THP-1 cells; assay: Cell growth inhibition assay (CellTiter-Glo), THP-1; format: cell-based; conditions: Homo sapiens
In short: as §1

Row | Compound | GI50 [1] | GI50 [2] | GI50 [3]
1 | CNC(=O)n1nc(C)c2c1C(=O)N(c1cc(C)c(=O)n(C)c1)C2c1ccc(Cl)cc1 (stereo not drawn) [Example 143, 4-(4-chlorophenyl)-5-(1,5-dimethyl-6-oxo-1,6-dihydropyridin-3-yl)-N,3-dimethyl-6-oxo-5,6-dihydropyrrolo-[3,4-c]pyrazole-1(4H)-carboxamide] | 1200 nM | 86 nM | 300 nM
2 | CNC(=O)n1nc2c(c1C)C(c1ccc(Cl)cc1)N(c1cc(C)c(=O)n(C)c1)C2=O (stereo not drawn) [Example 144, 4-(4-chlorophenyl)-5-(1,5-dimethyl-6-oxo-1,6-dihydropyridin-3-yl)-N,3-dimethyl-6-oxo-5,6-dihydropyrrolo-[3,4-c]pyrazole-2(4H)-carboxamide] | 432 nM | 59.8 nM | 214 nM
3 | CNC(=O)n1nc(C)c2c1C(=O)N(c1cc(C)c3nnc(C)n3c1)C2c1ccc(Cl)cc1 (stereo not drawn) [Example 145, 4-(4-chlorophenyl)-5-(3,8-dimethyl-[1,2,4]triazolo[4,3-a]pyridin-6-yl)-N,3-dimethyl-6-oxo-5,6-dihydropyrrolo[3,4-c]pyrazole-1(4H)-carboxamide] | 875 nM | 49.9 nM | 176 nM
4 | CCc1nn(C(=O)N(C)C)c2c1C(c1ccc(Cl)cc1)N(c1cc(C)c(=O)n(C)c1)C2=O (stereo not drawn) [Example 147, 4-(4-chlorophenyl)-5-(1,5-dimethyl-6-oxo-1,6-dihydropyridin-3-yl)-3-ethyl-N,N-dimethyl-6-oxo-5,6-dihydropyrrolo[3,4-c]pyrazole-1(4H)-carboxamide] | 792 nM | 67 nM | 157 nM
5 | CCc1c2c(nn1C(=O)N(C)C)C(=O)N(c1cc(C)c(=O)n(C)c1)C2c1ccc(Cl)cc1 (stereo not drawn) [Example 148, 4-(4-chlorophenyl)-5-(1,5-dimethyl-6-oxo-1,6-dihydropyridin-3-yl)-3-ethyl-N,N-dimethyl-6-oxo-5,6-dihydropyrrolo-[3,4-c]pyrazole-2(4H)-carboxamide] | 1130 nM | 81.7 nM | 157 nM
6 | Cc1cc(N2C(=O)c3nn(C(=O)N(C)C)c(C)c3[C@H]2c2ccc(Cl)cc2)cn2c(C)nnc12 [Example 150, (R)-4-(4-chlorophenyl)-5-(3,8-dimethyl-[1,2,4]triazolo[4,3-a]pyridin-6-yl)-N,N,3-trimethyl-6-oxo-5,6-dihydropyrrolo-[3,4-c]pyrazole-2(4H)-carboxamide] | 406 nM | 55.5 nM | 101 nM
7 | Cc1nn(C2CNC2)c2c1C(c1ccc(Cl)cc1)N(c1cc(C)c3nnc(C)n3c1)C2=O (stereo not drawn) [Example 151, 1-(azetidin-3-yl)-4-(4-chlorophenyl)-5-(3,8-dimethyl-[1,2,4]triazolo[4,3-a]pyridin-6-yl)-3-methyl-4,5-dihydropyrrolo[3,4-c]pyrazol-6(1H)-one] | 2610 nM | 226 nM | 778 nM
8 | Cc1cc(N2C(=O)c3nn(C4CNC4)c(C)c3C2c2ccc(Cl)cc2)cn2c(C)nnc12 (stereo not drawn) [Example 152, 2-(azetidin-3-yl)-4-(4-chlorophenyl)-5-(3,8-dimethyl-[1,2,4]triazolo[4,3-a]pyridin-6-yl)-3-methyl-4,5-dihydropyrrolo[3,4-c]pyrazol-6(2H)-one] | 4330 nM | 438 nM | 2600 nM
9 | CC(=O)N1CC(n2nc(C)c3c2C(=O)N(c2cc(C)c(=O)n(C)c2)C3c2ccc(Cl)cc2)C1 (stereo not drawn) [Example 153, 1-(1-acetylazetidin-3-yl)-4-(4-chlorophenyl)-5-(1,5-dimethyl-6-oxo-1,6-dihydropyridin-3-yl)-3-methyl-4,5-dihydropyrrolo[3,4-c]pyrazol-6(1H)-one] | 925 nM | 115 nM | 229 nM
10 | CC(=O)N1CC(n2nc(C)c3c2C(=O)N(c2cc(C)c4nnc(C)n4c2)C3c2ccc(Cl)cc2)C1 (stereo not drawn) [Example 154, 1-(1-acetylazetidin-3-yl)-4-(4-chlorophenyl)-5-(3,8-dimethyl-[1,2,4]triazolo[4,3-a]pyridin-6-yl)-3-methyl-4,5-dihydropyrrolo[3,4-c]pyrazol-6(1H)-one] | 956 nM | 59 nM | 243 nM
11 | CCOC(=O)N1CC(n2nc(C)c3c2C(=O)N(c2cc(C)c(=O)n(C)c2)C3c2ccc(Cl)cc2)C1 (stereo not drawn) [Example 155, Ethyl 3-(4-(4-chlorophenyl)-5-(1,5-dimethyl-6-oxo-1,6-dihydropyridin-3-yl)-3-methyl-6-oxo-5,6-dihydropyrrolo[3,4-c]pyrazol-1(4H)-yl)azetidine-1-carboxylate] | 638 nM | 73.4 nM | 120 nM
12 | CCOC(=O)N1CC(n2nc(C)c3c2C(=O)N(c2cc(C)c4nnc(C)n4c2)C3c2ccc(Cl)cc2)C1 (stereo not drawn) [Example 156, Ethyl 3-(4-(4-chlorophenyl)-5-(3,8-dimethyl-[1,2,4]triazolo[4,3-a]pyridin-6-yl)-3-methyl-6-oxo-5,6-dihydropyrrolo[3,4-c]pyrazol-1(4H)-yl)azetidine-1-carboxylate] | 374 nM | 35.6 nM | 69.6 nM
13 | Cc1nn(C2CN(C)C2)c2c1C(c1ccc(Cl)cc1)N(c1cc(C)c3nnc(C)n3c1)C2=O (stereo not drawn) [Example 157, 4-(4-chlorophenyl)-5-(3,8-dimethyl-[1,2,4]triazolo[4,3-a]pyridin-6-yl)-3-methyl-1-(1-methylazetidin-3-yl)-4,5-dihydropyrrolo[3,4-c]pyrazol-6(1H)-one] | 534 nM | 50 nM | 158 nM
14 | Cc1cc(N2C(=O)c3nn(C4CN(C)C4)c(C)c3C2c2ccc(Cl)cc2)cn2c(C)nnc12 (stereo not drawn) [Example 158, 4-(4-chlorophenyl)-5-(3,8-dimethyl-[1,2,4]triazolo[4,3-a]pyridin-6-yl)-3-methyl-2-(1-methylazetidin-3-yl)-4,5-dihydropyrrolo-[3,4-c]pyrazol-6(2H)-one] | 484 nM | 26.6 nM | 142 nM
15 | Cc1nn(C2CC2)c2c1C(c1ccc(Cl)cc1)N(c1cn(C)c(=O)c3[nH]ccc13)C2=O (stereo not drawn) [Example 160, 4-(4-(4-chlorophenyl)-1-cyclopropyl-3-methyl-6-oxopyrrolo-[3,4-c]pyrazol-5(1H,4H,6H)-yl)-6-methyl-1H-pyrrolo[2,3-c]pyridin-7(6H)-one] | 426 nM | 66.2 nM | 56.1 nM

Molecules with a lower GI50 [1], results first:

Row | GI50 [1] | GI50 [2] | GI50 [3] | Compound
16 | 314 nM | 39.2 nM | 150 nM | CNC(=O)n1nc2c(c1C)C(c1ccc(Cl)cc1)N(c1cc(C)c3nnc(C)n3c1)C2=O (stereo not drawn) [Example 146, 4-(4-chlorophenyl)-5-(3,8-dimethyl-[1,2,4]triazolo[4,3-a]pyridin-6-yl)-N,3-dimethyl-6-oxo-5,6-dihydropyrrolo[3,4-c]pyrazole-2(4H)-carboxamide]
17 | 348 nM | 28 nM | 68.8 nM | Cc1nn(C(=O)N(C)C)c2c1[C@@H](c1ccc(Cl)cc1)N(c1cc(C)c3nnc(C)n3c1)C2=O [Example 149, (R)-4-(4-chlorophenyl)-5-(3,8-dimethyl-[1,2,4]triazolo[4,3-a]pyridin-6-yl)-N,N,3-trimethyl-6-oxo-5,6-dihydropyrrolo-[3,4-c]pyrazole-1(4H)-carboxamide]
18 | 116 nM | 40 nM | 36.9 nM | Cc1cc(N2C(=O)c3c(c(CF)nn3C3CC3)C2c2ccc(Cl)cc2)cn2c(C)nnc12 (stereo not drawn) [Example 159, 4-(4-chlorophenyl)-1-cyclopropyl-5-(3,8-dimethyl-[1,2,4]triazolo[4,3-a]pyridin-6-yl)-3-(fluoromethyl)-4,5-dihydropyrrolo[3,4-c]pyrazol-6(1H)-one]
19 | 352 nM | 66.1 nM | 78.5 nM | CNc1cc(N2C(=O)c3c(c(C)nn3C3CC3)[C@H]2c2ccc(Cl)cc2)nn2c(C)nnc12 [Example 161, (R)-4-(4-chlorophenyl)-1-cyclopropyl-3-methyl-5-(3-methyl-8-(methylamino)-[1,2,4]triazolo[4,3-b]pyridazin-6-yl)-4,5-dihydropyrrolo-[3,4-c]pyrazol-6(1H)-one]
20 | 244 nM | 41.8 nM | 54.6 nM | COCc1nn(C2CC2)c2c1[C@@H](c1ccc(Cl)cc1)N(c1cc(C)c(=O)n(C)c1)C2=O [Example 162, (R)-4-(4-chlorophenyl)-1-cyclopropyl-5-(1,5-dimethyl-6-oxo-1,6-dihydropyridin-3-yl)-3-(methoxymethyl)-4,5-dihydropyrrolo[3,4-c]pyrazol-6(1H)-one]
21 | 79.8 nM | 10.3 nM | 17.5 nM | COCc1nn(C2CC2)c2c1[C@@H](c1ccc(Cl)cc1)N(c1cc(C)c3nnc(C)n3c1)C2=O [Example 163, (R)-4-(4-chlorophenyl)-1-cyclopropyl-5-(3,8-dimethyl-[1,2,4]triazolo[4,3-a]pyridin-6-yl)-3-(methoxymethyl)-4,5-dihydropyrrolo-[3,4-c]pyrazol-6(1H)-one]
22 | 98.2 nM | 7.69 nM | 9.6 nM | Cc1cc(N2C(=O)c3c(c(C4CC4)nn3C)[C@H]2c2ccc(Cl)cc2)cn2c(C)nnc12 [Example 164, (R)-4-(4-chlorophenyl)-3-cyclopropyl-5-(3,8-dimethyl-[1,2,4]triazolo[4,3-a]pyridin-6-yl)-1-methyl-4,5-dihydropyrrolo-[3,4-c]pyrazol-6(1H)-one]
23 | 190 nM | 21.7 nM | 38.3 nM | Cc1n[nH]c2c1[C@@H](c1ccc(Cl)cc1)N(c1cc(C)c3nnc(C)n3c1)C2=O [Example 165, (R)-4-(4-chlorophenyl)-5-(3,8-dimethyl-[1,2,4]triazolo[4,3-a]pyridin-6-yl)-3-methyl-4,5-dihydropyrrolo[3,4-c]pyrazol-6(1H)-one]
24 | 94.6 nM | 9.38 nM | 17.1 nM | Cc1cc(N2C(=O)c3c(c(CO)nn3C3CC3)[C@H]2c2ccc(Cl)cc2)cn2c(C)nnc12 [Example 166, (R)-4-(4-chlorophenyl)-1-cyclopropyl-5-(3,8-dimethyl-[1,2,4]triazolo[4,3-a]pyridin-6-yl)-3-(hydroxymethyl)-4,5-dihydropyrrolo-[3,4-c]pyrazol-6(1H)-one]
